Data reported in article PMC8365601, “Terphenyl-Based Small-Molecule Inhibitors of Programmed Cell Death-1/Programmed Death-Ligand 1 Protein–Protein Interaction” (Journal of Medicinal Chemistry, 2021).
Like-named read-outs stand apart in the source and are kept apart here.

Legend:
[1] = target: T1, human PD-L1 (Homo sapiens, UniProt Q9NZQ7); assay: 1H NMR titration with human PD-L1; assay type: binding; conditions: molar ratio 1:1
T1 construct: pET-21b plasmid carrying the PD-L1 gene (amino acids 18–134); made in house; host or cells: Escherichia coli BL21
Procedure: NMR spectra were recorded in PBS pH 7.4 containing 10% (v/v) of D2O added to the samples to provide the lock signal. Water suppression was carried out using the WATERGATE sequence. All the spectra were recorded at 300 K using a Bruker AVANCE 600 MHz spectrometer with the cryo-platform. The spectra were recorded at the ligand/protein ratio of 1:1, unless stated otherwise. The samples were prepared by adding small amounts of a 50 mM ligand stock solution in DMSO to the protein solution (0.20 mL) of PD-L1 fragment at a concentration of 0.2 mM. Spectra were visualized using TopSpin 4.0.2.

[2] = target: T2, PD-1/PD-L1 interaction (Homo sapiens, UniProt Q9NZQ7); assay: PD-1/PD-L1 ICB assay (Jurkat-ECs with CHO/TCRAct/PD-L1 cells, luciferase); assay type: cell-based; conditions: for EC50: Jurkat-ECs with CHO/TCRAct/PD-L1, 6 h, SI csv, read-out: Bioactivity (EC50 in the ICB assay)
T2 construct: host or cells: CHO-K1 (CHO/TCRAct/PD-L1) and Jurkat effector cells
Procedure: After a successful optimization of the terphenyl compounds, the activity of the optimized molecules 7a and 8a–j in a cellular context was assessed. To this end, we first performed the PD-1/PD-L1 ICB assay. In this assay, T-cell receptor (TCR)-mediated activation of Jurkat effector cells (Jurkat-ECs) is reduced by the presence of PD-L1, exposed at the surface of CHO/TCRAct/PD-L1 cells (Figure 3A).
(§1) The functional assay of the blockade of PD-1/PD-L1 interaction in vitro (PD-1/PD-L1 Blockade Bioassay, Promega) was performed according to the manufacturer’s protocol. CHO/TCRAct/PD-L1 cells or CHO/TCRAct or CHO-K1 cells were seeded on 96-well white plates at the density of 10,000 cells/well and the next day overlaid with Jurkat T cells (20,000 cells/well) in the presence of increasing concentrations of the compounds with DMSO only as a control (the concentration of DMSO was kept constant at 0.1%) or atezolizumab, as a positive control, anti-PD-L1 monoclonal antibody (Selleckchem). The 2.5-fold dilutions of atezolizumab were prepared in the assay buffer (RPMI 1640 + 1% FBS) on the day of the assay. Activation of the Jurkat T cells, reflected by luciferase activity, was monitored by luminescence measurements after 6 h of incubation (37 °C, 5% CO2), and 20 min of additional incubation with the Bio-Glo assay reagent (Promega) at room temperature. The luminescence was read on a Spark microplate reader (Tecan). The data are presented as fold induction of the luminescence signal relative to either untreated (for atezolizumab) or DMSO-treated (for compound) cells. Data points represent mean ± SD values from three to five independent experiments. Half-maximal effective concentrations (EC50 values) were calculated from the Hill curve fitting to the experimental data using Origin Pro 2020 software (OriginLab).

[3] = Cytotoxicity assay toward Jurkat-ECs; assay type: cell-based; conditions: human, Jurkat-EC cells, SI csv
Procedure: The cytotoxicity of compounds was verified toward Jurkat-ECs since these cells provide the readout in the ICB assay and present a much higher degree of susceptibility to the compounds’ toxicity than CHO-K1 cells (not shown). Jurkat-ECs were seeded on 96-well transparent plates in the presence of increasing concentrations of the compounds with DMSO-treated cells as a control. The concentration of DMSO was kept constant (0.1%). After 48 h of incubation, a tetrazolium reagent, Biolog redox dye MIX MB (Biolog), was added according to the manufacturer’s protocol, and the culture plates were incubated for an additional 2 h (37 °C, 5% CO2). The absorbance was measured using a Spark microplate reader (Tecan) at 590 nm with 750 nm as a reference. The data are presented as Jurkat-EC survival relative to DMSO-treated control cells. Data points represent mean ± SD values from three independent experiments. Half-maximal effective concentrations (EC50 values) were calculated from the dose–response curve using OriginPro 2020 (OriginLab) software.

[4] = target: PD-1/PD-L1 complex (Homo sapiens, UniProt Q9NZQ7); assay: HTRF assay of PD-1/PD-L1 complex dissociation (CisBio); conditions: for remaining activity at 0.005 µM / remaining activity at 5 µM: 2 h; for IC50: HTRF;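 for all read-outs here: human PD-L1 at 5 nM with human PD-1 at 50 nM, TR-FRET signal read after 2 h at room temperature, background removed via negative control and scaled to positive control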
[5] = test system: primary CD4+ and CD8+ T cells (PBMCs); assay: T-cell activation (TCA) assay, PBMCs with CHO/TCRAct/PD-L1 cells, flow cytometry; assay type: cell-based, human; conditions: 48 h; compounds 0.1, 0.5, 2.5 μM; mAbs 5 μg/mL
Procedure: A standard ICB assay relies on artificial Jurkat-ECs, which are surrogates of T-cells. To verify the potential of the compounds to reactivate the PD-L1-blocked primary T cells, a modified assay termed T-cell activation (TCA) was carried out.[32] In this assay, human primary peripheral blood mononuclear cells (PBMCs) are allowed to make contact with CHO/TCRAct/PD-L1 cells alone or in the presence of PD-1/PD-L1 blockers, and the activation of CD4^+ and CD8^+ T cell is monitored by flow cytometry.
Anticoagulant citrate dextrose-A-treated blood from healthy donors was purchased from the Regional Center of Blood Donation and Blood Therapy in Krakow, Poland. PBMCs were isolated from whole blood by density gradient centrifugation using Pancoll human separating solution (PAN-Biotech GmbH, Aidenbach, Germany). The separated cells were washed and resuspended in RPMI 1640 medium (Biowest) containing 10% FBS (Biowest). PBMCs were added at an amount of 3 × 10^5 to CHO, CHO/TCRAct, or CHO/TCRAct/PD-L1 cells preseeded on 24-well plates in the presence of either anti-PD-L1 mAbs (at the final concentration 5 μg/mL): durvalumab (Selleckchem), atezolizumab (Selleckchem), or avelumab (MedChemExpress) or tested compounds at the concentrations 0.1, 0.5, and 2.5 μM. Untreated cells were used as controls for antibody treatment, while DMSO-treated cells [0.1% (v/v)] were used as controls for compound treatment. The cells were incubated for 48 h (37 °C, 5% CO2) and then detached from the plates with TrypLe Select Enzyme (Thermo Fisher). PBMCs were stained for 20 min at room temperature with the antibodies: anti-CD4-FITC, anti-CD8-BV510, anti-CD69-APC, anti-CD25-PE, anti-HLA-DR-PerCP, and anti-PD1-PECy7 (Becton Dickinson Biosciences, BD). Following two washing steps, the cells were analyzed with a FACSCanto II cytometer. Data analysis was carried out with FlowJo software, followed by statistical significance calculations done with Origin Pro 2020 software (OriginLab). Statistical significance was analyzed with one-way analysis of variance (ANOVA), followed by the Fisher’s posthoc test: *p < 0.05, **p < 0.01, […].

[6] = test system: Jurkat-ECs alone or with CHO wt or CHO/TCRAct cells; assay: ICB assay control where PD-L1 is absent; assay type: cell-based; conditions: 6 h; Figure S1
Procedure: as §1, with “(OriginLab). […]” for “(OriginLab).”
of the Immune Checkpoint Blockade (ICB) assay, where 8h, 8i, and 8j were used to restore the activation of effector Jurkat-ECs. Jurkat-ECs were either kept alone, or contacted with one of the following cell lines: wild type CHO K1 cells (CHO wt), CHO K1 cells expressing TCR Activator (CHO/TCRAct), or CHO K1 cells expressing TCR Activator and […]. The cells were incubated with the indicated concentrations of the compounds for 6 hours and luminescence was measured as an indicator of TCR-dependent activation of Jurkat-ECs. The graphs present fold induction of the luminescence signal relative to DMSO-treated cells. […]

[7] = read-out: % of undissociated complex at 5 nM
[8] = read-out: HTRF % of the undissociated complex at 5 nM
[9] = Table 4, <1.00 = limit of quantification reached

PD-1/PD-L1 complex, sequence (Q9NZQ7 19-238 limits assumed, one chain of several): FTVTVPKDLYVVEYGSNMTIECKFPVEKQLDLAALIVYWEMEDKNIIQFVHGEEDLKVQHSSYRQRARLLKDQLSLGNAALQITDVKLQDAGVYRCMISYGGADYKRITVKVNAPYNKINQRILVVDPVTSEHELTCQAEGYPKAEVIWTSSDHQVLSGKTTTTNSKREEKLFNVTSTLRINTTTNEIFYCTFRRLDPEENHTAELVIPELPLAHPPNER
T1 sequence (Q9NZQ7 18-134): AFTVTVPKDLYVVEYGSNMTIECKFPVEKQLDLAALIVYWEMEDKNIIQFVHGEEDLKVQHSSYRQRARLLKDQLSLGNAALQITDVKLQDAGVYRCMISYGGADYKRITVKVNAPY
T2 sequence (Q9NZQ7 19-290): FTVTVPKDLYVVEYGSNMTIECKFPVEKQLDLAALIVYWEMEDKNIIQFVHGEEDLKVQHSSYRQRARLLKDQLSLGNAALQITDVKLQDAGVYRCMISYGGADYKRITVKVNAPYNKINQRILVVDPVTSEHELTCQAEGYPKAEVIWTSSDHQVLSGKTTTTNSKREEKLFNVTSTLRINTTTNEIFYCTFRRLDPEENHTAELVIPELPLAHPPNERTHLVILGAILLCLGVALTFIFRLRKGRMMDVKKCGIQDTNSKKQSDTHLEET

| Molecule | EC50 [2] [µM] | EC50 at 48 h [3] [µM] | remaining activity at 0.005 µM [4, 7] [%] | remaining activity at 0.005 µM [4, 8] [%] | IC50 [4, 9] [µM] | also measured |
| --- | --- | --- | --- | --- | --- | --- |
| COc1cc(-c2cccc(-c3ccc4c(c3)OCCO4)c2Cl)ccc1CNCCNC(C)=O [7a, N-(2-(((3′-(Benzo-1,4-dioxan-6-yl)-2′-chloro-3-methoxy-[1,1′-biphenyl]-4-yl)methyl)amino)ethyl)acetamide] | 2.82 ± 0.4 | 3.19 ± 0.41 | 0 | 0 | – | change of hPD-L1 1H NMR spectrum on adding compound [1]: broadening of the hPD-L1 proton signals; complex dissociation ([4]; 5 nM ligand): complete complex dissociation; IC50 ([4]; Table 3): 0.00082 ± 2e-05 µM |
| avelumab: therapeutic anti-PD-L1 antibody | – | – | – | – | – | numbers of PD-1-positive T cells [5]: increases the expression of PD-1 on T-cells |
| COc1cc(-c2cccc(-c3ccc4c(c3)OCCO4)c2Cl)ccc1CNCCNC(=O)CN [8f, 2-Amino-N-(2-(((3′-(benzo-1,4-dioxan-6-yl)-2′-chloro-3-methoxy-[1,1′-biphenyl]-4-yl)methyl)amino)ethyl)acetamide] | 3.28 ± 0.6 | 3.1 ± 0.22 | 8 | 8 | < 0.001 | – |
| CC(=O)NCCNCc1ccc(-c2cccc(-c3ccc4c(c3)OCCO4)c2Cl)cc1OCC#N [7e, N-(2-(((3′-(Benzo-1,4-dioxan-6-yl)-2′-chloro-3-(cyanomethoxy)-[1,1′-biphenyl]-4-yl)methyl)amino)ethyl)acetamide] | – | – | 1 | 1 | – | change of hPD-L1 1H NMR spectrum on adding compound [1]: broadening of the hPD-L1 proton signals; complex dissociation ([4]; 5 nM ligand): 99% |
| Cc1c(-c2ccc(CO)cc2)cccc1-c1ccc2c(c1)OCCO2 [4a, (3′-(Benzo-1,4-dioxan-6-yl)-2′-methyl-[1,1′-biphenyl]-4-yl)methanol] | – | – | – | – | – | change of hPD-L1 1H NMR spectrum on adding compound [1]: broadening of the hPD-L1 proton signals; IC50 ([4]; Table 1): 5.52 ± 0.04 µM |
| durvalumab: therapeutic anti-PD-L1 antibody | – | – | – | – | – | numbers of PD-1-positive T cells [5]: increases the expression of PD-1 on T-cells |
| COc1cc(-c2cccc(-c3ccc4c(c3)OCCO4)c2Cl)ccc1CNC(CO)CO [8i, 2-(((3′-(Benzo-1,4-dioxan-6-yl)-2′-chloro-3-methoxy-[1,1′-biphenyl]-4-yl)methyl)amino)propane-1,3-diol] | 2.57 ± 0.45 | 4.63 ± 0.35 | 0 | 0 | < 0.001 | selectivity of PD-1/PD-L1-blocking activity versus cytotoxicity ([2]; EC50 (tox.) vs EC50 (bio.), Figure 3F): highest selectivity; activation of Jurkat-ECs where PD-L1 is absent [6]: requires the presence of PD-L1 |
| COc1cc(-c2cccc(-c3ccc4c(c3)OCCO4)c2Cl)ccc1CNCCNS(C)(=O)=O [8g, N-(2-(((3′-(Benzo-1,4-dioxan-6-yl)-2′-chloro-3-methoxy-[1,1′-biphenyl]-4-yl)methyl)amino)ethyl)methanesulfonamide] | 11.1 ± 4.35 | 4.47 ± 0.58 | 32 | 32 | 0.00207 ± 4e-05 | – |
| COc1cc(-c2cccc(-c3ccc4c(c3)OCCO4)c2Cl)ccc1CN1CCN(C(=O)CN)CC1 [8d, 2-Amino-1-(4-((3′-(benzo-1,4-dioxan-6-yl)-2′-chloro-3-methoxy-[1,1′-biphenyl]-4-yl)methyl)piperazin-1-yl)ethan-1-one] | – | – | 5 | 5 | < 0.001 | % of the undissociated (remaining) complex ([4]; 5 nM ligand): 5% |
| COc1cc(-c2cccc(-c3ccc4c(c3)OCCO4)c2Cl)ccc1CN1CCN(C(C)=O)CC1 [8c, 1-(4-((3′-(Benzo-1,4-dioxan-6-yl)-2′-chloro-3-methoxy-[1,1′-biphenyl]-4-yl)methyl)piperazin-1-yl)ethan-1-one] | – | – | 40 | 40 | < 0.001 | – |
| N#Cc1c(-c2ccc(CO)cc2)cccc1-c1ccc2c(c1)OCCO2 [4h] | – | – | – | – | – | remaining activity at 5 µM ([4]; read-out: % of the undissociated complex in HTRF): 21%; remaining activity at 5 µM ([4]; read-out: % of undissociated complex at 5 μM): 21%; remaining activity at 5 µM ([4]; read-out: HTRF % of the undissociated complex at 5 μM): 21%; IC50 ([4]; Table 1): 1.17 ± 0.12 µM |
